Earlier results in patent publication US6495121B2, “Chewing gum containing dipetide sweetener with lengthened and improved flavor” (Holland Sweetner Company V.O.F., priority 1996, dated 2002).
Where a SMILES comes first, the peptide text is derived from it.

Details: relative to sucrose

| SMILES | sweetening power |
| --- | --- |
| COC(=O)[C@H](Cc1ccccc1)NC(=O)[C@@H](N)CC(=O)O [Aspartame, α-L-aspartyl-L-phenylalaninemethylester] (H-Asp-Phe-OMe) | approximately 200 × that of sucrose |
| C[C@@H](NC(=O)[C@@H](N)CC(=O)O)C(=O)NC1C(C)(C)SC1(C)C.O [Alitame, L-α-aspartyl-n-(2,2,4,4-tetramethyl-3-thietanyl)-D-alanineamidehydrate] | approximately 2000 × that of sucrose |
